# Results reported in patent US20230355646A1, “AUTOPHAGY ACTIVATOR” (Resonac Corporation, priority 2020, published 2023).
# Tests used:
# [1] = test system: LC3 gene; experiment: LC3 gene expression promoting effect in human neuroblastoma SH-SY5Y in the presence of amyloid β; type: cell-based
# Experimental: (§1) In the presence of an autophagy activator, the expression levels of the LC3 gene, ATG5 gene, and ATG7 gene in human neuroblastoma (SH-SY5Y; obtained from ATCC) were measured by the following test method, and the effect of promoting the expression of the LC3 gene, ATG5 gene, and ATG7 gene by an autophagy activator was evaluated.
# (§2) In the following examples and comparative examples, tests were performed by adding amyloid β, which is known to cause a decrease in autophagy in nerve cells, to each medium.
# (§3) SH-SY5Y cells were prepared at a seeding density of 10000 cells/cm^2 and cultured for 24 hours in D-MEM medium/Ham's F-12 medium (manufactured by Sigma-Aldrich) to which 10% fetal bovine serum (manufactured by MP Biomedicals) was added. Next, in Example 15, the methyl hesperidin DMSO solution was added to the medium such that the final concentration of methyl hesperidin was 10^−3% (V/V) and the final concentration of DMSO was 0.1% (V/V). […]
# (§4) Then, using Nucleospin (registered trademark) RNA kit (manufactured by Takara Bio Inc.), RNA was extracted from SH-SY5Y cells in each example, and cDNA was synthesized from the obtained RNA. Next, using this cDNA as a template, by quantitative real-time PCR, the expression level of each gene was quantified using primers (manufactured by Takara Bio Inc.) specific to the LC3 gene, ATG5 gene, and ATG7 gene, respectively. […]
# [2] = test system: ATG7 gene; experiment: ATG7 gene expression promoting effect in human neuroblastoma SH-SY5Y in the presence of amyloid β; type: cell-based
# Experimental: as §1, §2, §3, §4
# [3] = SH-SY5Y cells with amyloid β, compared to DMSO and amyloid β of Comparative Example 5
# [4] = SH-SY5Y cells, 20 μM amyloid β present, 10^−2% (V/V) methyl hesperidin or hesperidin, additional ingredient where in the example, 48 hours, Reference Example 3 = 1.00
smiles,measurement,setting,value
"COc1ccc([C@@H]2CC(=O)c3c(O)cc(O[C@@H]4O[C@H](CO[C@@H]5O[C@@H](C)[C@H](O)[C@@H](O)[C@H]5O)[C@@H](O)[C@H](O)[C@H]4O)cc3O2)cc1O [Comparative Example 2, hesperidin]",expression level of the LC3 gene (in words),[1]; [3],increased
same,Relative gene expression level LC3,[1]; [4],2.41
same,expression level of the ATG7 gene (in words),[2]; [3],increased
same,Relative gene expression level ATG7,[2]; [4],2.31
